Assay results reported in patent publication US12427187B2, “Glucose-responsive insulin conjugates” (priority 2019, dated 2025).
pIC50: −log10 of the molar value.

Molecular target: T1, Human macrophage mannose receptor 1 (MRC1) (Homo sapiens, UniProt P22897)
T1 sequence (P22897 19-1456): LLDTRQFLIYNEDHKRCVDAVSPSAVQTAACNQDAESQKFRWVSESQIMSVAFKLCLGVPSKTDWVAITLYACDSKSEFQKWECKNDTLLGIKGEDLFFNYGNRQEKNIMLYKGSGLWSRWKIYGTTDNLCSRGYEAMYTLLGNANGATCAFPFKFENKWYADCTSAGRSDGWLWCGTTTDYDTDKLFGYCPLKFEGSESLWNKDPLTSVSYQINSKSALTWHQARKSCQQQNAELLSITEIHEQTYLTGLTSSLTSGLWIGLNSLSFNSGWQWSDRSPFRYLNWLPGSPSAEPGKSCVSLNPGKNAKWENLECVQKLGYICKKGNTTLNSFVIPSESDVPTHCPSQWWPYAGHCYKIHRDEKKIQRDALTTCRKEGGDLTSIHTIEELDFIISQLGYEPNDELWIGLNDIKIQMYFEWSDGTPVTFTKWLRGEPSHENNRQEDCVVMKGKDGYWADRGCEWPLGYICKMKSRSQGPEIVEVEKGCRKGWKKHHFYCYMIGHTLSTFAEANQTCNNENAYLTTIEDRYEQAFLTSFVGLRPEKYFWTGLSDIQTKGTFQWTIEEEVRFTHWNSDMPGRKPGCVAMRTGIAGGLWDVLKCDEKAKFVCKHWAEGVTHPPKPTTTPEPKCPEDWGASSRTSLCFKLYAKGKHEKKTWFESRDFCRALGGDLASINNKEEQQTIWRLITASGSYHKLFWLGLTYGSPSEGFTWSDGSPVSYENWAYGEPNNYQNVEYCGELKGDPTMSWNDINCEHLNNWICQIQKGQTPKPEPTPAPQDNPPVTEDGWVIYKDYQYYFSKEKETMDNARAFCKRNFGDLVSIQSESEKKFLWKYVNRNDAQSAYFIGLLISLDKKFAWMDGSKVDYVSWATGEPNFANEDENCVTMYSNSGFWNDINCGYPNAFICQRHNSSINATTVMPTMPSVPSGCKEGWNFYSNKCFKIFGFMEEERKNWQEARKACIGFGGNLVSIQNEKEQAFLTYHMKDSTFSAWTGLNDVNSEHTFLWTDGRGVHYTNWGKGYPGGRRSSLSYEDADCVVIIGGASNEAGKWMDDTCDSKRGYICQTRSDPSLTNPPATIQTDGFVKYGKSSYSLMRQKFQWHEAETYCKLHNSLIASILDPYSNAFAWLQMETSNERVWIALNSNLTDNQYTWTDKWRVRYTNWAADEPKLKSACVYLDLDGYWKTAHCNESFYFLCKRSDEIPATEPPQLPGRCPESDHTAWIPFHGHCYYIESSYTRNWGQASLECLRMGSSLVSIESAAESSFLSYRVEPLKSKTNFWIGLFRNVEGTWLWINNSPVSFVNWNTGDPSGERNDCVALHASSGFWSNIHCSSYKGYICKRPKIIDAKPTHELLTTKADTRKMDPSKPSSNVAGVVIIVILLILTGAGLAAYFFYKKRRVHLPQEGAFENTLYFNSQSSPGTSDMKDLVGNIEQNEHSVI
Assay: MRC1 competition binding assay with Eu-mannosylated-BSA
Details: MRC1 Binding IP, Method F: 384-well plate; IP = inflection point
Protocol: The competition binding assay for Human macrophage mannose receptor 1 (MRC1) utilized a ligand, mannosylated-BSA labeled with the DELFIA Eu-N1-ITC reagent, as reported in the literature. Assay was performed either in a 96-well plate with 100 μL well volume (Method E) or in a 384-well plate with 25 μL well volume (Method F). […] The antibody was incubated in the plate for 1 hr at rt with shaking. The plate was washed with wash buffer 3-5 times followed by addition of MRC1 (2 ng/μl final concentration) in PBS containing 1% stabilizer BSA. The plate was incubated at rt with gentle shaking for 1 hr. The plate was washed three times with wash buffer. The IOC molecules in 12.5 μL (or 50 μL depending on plate format) buffer at appropriate concentrations were added followed by 12.5 μL (or 50 μL) Eu-mannosylated-BSA (0.1 nm final concentration) in 50 mM Tris, pH 7.5 containing 100 mM NaCl, 5 mM CaCl2, 1 mM MgCl2 and 0.2% stabilizer BSA. The plate was incubated for 2 hrs at rt with shaking followed by washing three times with wash buffer.

Q: How did the pIC50 turn out when `CC(=O)[C@H](CCCCN)NC(=O)CCCCCNC(=O)[C@H](CCCCNC(=O)CCCCCNC(=O)CN(CC(=O)NCCO[C@@H]1O[C@@H](C)[C@@H](O)[C@@H](O)[C@@H]1O)CC(=O)NCCO[C@@H]1O[C@@H](C)[C@@H](O)[C@@H](O)[C@@H]1O)NC(=O)[C@H](CCCCNC(=O)CCCCCNC(=O)CN(CC(N)=O)CC(=O)NCCO[C@@H]1CC(C)[C@@H](O)[C@@H](O)[C@@H]1O)NC(=O)CCCCCNC(=O)CN(CC(=O)NCCO[C@@H]1O[C@@H](C)[C@@H](O)[C@@H](O)[C@@H]1O)CC(=O)NCCO[C@@H]1O[C@@H](C)[C@@H](O)[C@@H](O)[C@@H]1O` (stereo partly shown) [IOC-41] was run?
A: Its pIC50 is 8.22.

Same assay, conditions: Method E: 96-well plate; IP = inflection point; read-out: MRC1 Binding IP

Q: How did the pIC50 turn out when `CC(=O)[C@H](CCCCN)NC(=O)CCCCC(=O)N[C@@H](CCC(=O)NCCCC[C@@H](C(=O)NCCO[C@@H]1O[C@H](CO)[C@@H](O)[C@H](O)[C@H]1O)N(CC(=O)NCCO[C@@H]1O[C@H](CO)[C@@H](O)[C@H](O)[C@H]1O)CC(=O)NCCO[C@@H]1O[C@H](CO)[C@@H](O)[C@H](O)[C@H]1O)C(=O)N[C@@H](CCC(=O)NCCCC[C@@H](C(=O)NCCO[C@@H]1O[C@H](CO)[C@@H](O)[C@H](O)[C@H]1O)N(CC(=O)NCCO[C@@H]1O[C@H](CO)[C@@H](O)[C@H](O)[C@H]1O)CC(=O)NCCO[C@@H]1O[C@H](CO)[C@@H](O)[C@H](O)[C@H]1O)C(=O)N[C@@H](CC(C)C)C(=O)NCCCC[C@@H](C(=O)NCCO[C@@H]1O[C@H](CO)[C@@H](O)[C@H](O)[C@H]1O)N(CC(=O)NCCO[C@@H]1O[C@H](CO)[C@@H](O)[C@H](O)[C@H]1O)CC(=O)NCCO[C@@H]1O[C@H](CO)[C@@H](O)[C@H](O)[C@H]1O` [IOC-57] was run?
A: The pIC50 was 5.81.

Q: `CC(=O)[C@H](CCCCN)NC(=O)CCCCC(=O)NCC(=O)N[C@@H](CCC(=O)N[C@@H](CCC(=O)NCCCCCC(=O)NCCO[C@H]1O[C@H](CO[C@H]2O[C@H](CO)[C@@H](O)[C@H](O)[C@@H]2O)[C@@H](O)[C@H](O[C@H]2O[C@H](CO)[C@@H](O)[C@H](O)[C@@H]2O)[C@@H]1O)C(=O)NCCCCCC(=O)NCCOC1O[C@H](CO[C@H]2O[C@H](CO)[C@@H](O)[C@H](O)[C@@H]2O)[C@@H](O)[C@H](O[C@H]2O[C@H](CO)[C@@H](O)[C@H](O)[C@@H]2O)[C@@H]1O)C(=O)NCCCCCC(=O)NCCO[C@H]1O[C@H](CO[C@H]2O[C@H](CO)[C@@H](O)[C@H](O)[C@@H]2O)[C@@H](O)[C@H](O[C@H]2O[C@H](CO)[C@@H](O)[C@H](O)[C@@H]2O)[C@@H]1O` (stereo partly shown) [IOC-5] was tested. Which pIC50 did it give?
A: Its pIC50 is 8.04.

Q: With `CC(=O)[C@H](CCCCN)NC(=O)CCCCC(=O)N[C@@H](CCC(=O)N[C@@H](CCC(=O)N[C@@H](CCC(=O)NCCCCCC(=O)NCCO[C@H]1O[C@H](CO[C@H]2O[C@H](CO)[C@@H](O)[C@H](O)[C@@H]2O)[C@@H](O)[C@H](O[C@H]2O[C@H](CO)[C@@H](O)[C@H](O)[C@@H]2O)[C@@H]1O)C(=O)NCCCCCC(=O)NCCO[C@H]1O[C@H](CO[C@H]2O[C@H](CO)[C@@H](O)[C@H](O)[C@@H]2O)[C@@H](O)[C@H](O[C@H]2O[C@H](CO)[C@@H](O)[C@H](O)[C@@H]2O)[C@@H]1O)C(=O)NCCCCCC(=O)NCCO[C@H]1O[C@H](CO[C@H]2O[C@H](CO)[C@@H](O)[C@H](O)[C@@H]2O)[C@@H](O)[C@H](O[C@H]2O[C@H](CO)[C@@H](O)[C@H](O)[C@@H]2O)[C@@H]1O)C(=O)NCCCCCC(=O)NCCO[C@H]1O[C@H](CO[C@H]2O[C@H](CO)[C@@H](O)[C@H](O)[C@@H]2O)[C@@H](O)[C@H](O[C@H]2O[C@H](CO)[C@@H](O)[C@H](O)[C@@H]2O)[C@@H]1O` [IOC-24] as the molecule, how does the pIC50 read?
A: Its pIC50 is 8.48.

Q: How did the pIC50 turn out when `CC(=O)[C@H](CCCCN)NC(=O)CCCCCNC(=O)[C@H](CCCCNC(=O)CCCCCNC(=O)CN(CC(=O)NCCO[C@H]1O[C@H](CO)[C@@H](O)[C@H](O)[C@@H]1O)CC(=O)NCCO[C@H]1O[C@H](CO[C@H]2O[C@H](CO)[C@@H](O)[C@H](O)[C@@H]2O)[C@@H](O)[C@H](O[C@H]2O[C@H](CO)[C@@H](O)[C@H](O)[C@@H]2O)[C@@H]1O)NC(=O)[C@H](CCCCNC(=O)CCCCCNC(=O)CN(CC(=O)NCCO[C@H]1O[C@H](CO)[C@@H](O)[C@H](O)[C@@H]1O)CC(=O)NCCO[C@H]1O[C@H](CO[C@H]2O[C@H](CO)[C@@H](O)[C@H](O)[C@@H]2O)[C@@H](O)[C@H](O[C@H]2O[C@H](CO)[C@@H](O)[C@H](O)[C@@H]2O)[C@@H]1O)NC(=O)CCCCCNC(=O)CN(CC(=O)NCCO[C@H]1O[C@H](CO)[C@@H](O)[C@H](O)[C@@H]1O)CC(=O)NCCO[C@H]1O[C@H](CO[C@H]2O[C@H](CO)[C@@H](O)[C@H](O)[C@@H]2O)[C@@H](O)[C@H](O[C@H]2O[C@H](CO)[C@@H](O)[C@H](O)[C@@H]2O)[C@@H]1O` [IOC-39] was run?
A: The pIC50 was 8.62.

Q: With `CC(=O)[C@H](CCCCN)NC(=O)CCCCC(=O)N[C@@H](CCC(=O)NCCO[C@H]1O[C@H](CO)[C@@H](O)[C@H](O)[C@@H]1O)C(=O)N[C@@H](CCC(=O)NCCO[C@H]1O[C@H](CO)[C@@H](O)[C@H](O)[C@@H]1O)C(=O)N[C@@H](CCC(=O)NCCO[C@H]1O[C@H](CO)[C@@H](O)[C@H](O)[C@@H]1O)C(=O)NCCO[C@H]1O[C@H](CO[C@H]2O[C@H](CO)[C@@H](O)[C@H](O)[C@@H]2O)[C@@H](O)[C@H](O[C@H]2O[C@H](CO)[C@@H](O)[C@H](O)[C@@H]2O)[C@@H]1O` [IOC-23] as the molecule, how does the pIC50 read?
A: The pIC50 was 7.43.

Q: `CC(=O)[C@H](CCCCN)NC(=O)CCCCC(=O)N[C@@H](CCC(=O)NCCCC[C@@H](C(=O)NCCO[C@H]1O[C@H](CO)[C@@H](O)[C@H](O)[C@@H]1O)N(CC(=O)NCCO[C@H]1O[C@H](CO)[C@@H](O)[C@H](O)[C@@H]1O)CC(=O)NCCO[C@H]1O[C@H](CO)[C@@H](O)[C@H](O)[C@@H]1O)C(=O)N[C@@H](CCC(=O)NCCCC[C@@H](C(=O)NCCO[C@H]1O[C@H](CO)[C@@H](O)[C@H](O)[C@@H]1O)N(CC(=O)NCCO[C@H]1O[C@H](CO)[C@@H](O)[C@H](O)[C@@H]1O)CC(=O)NCCO[C@H]1O[C@H](CO)[C@@H](O)[C@H](O)[C@@H]1O)C(=O)N[C@@H](CC(C)C)C(=O)NCCCC[C@@H](C(=O)NCCO[C@H]1O[C@H](CO)[C@@H](O)[C@H](O)[C@@H]1O)N(CC(=O)NCCO[C@H]1O[C@H](CO)[C@@H](O)[C@H](O)[C@@H]1O)CC(=O)NCCO[C@H]1O[C@H](CO)[C@@H](O)[C@H](O)[C@@H]1O` [IOC-56] was tested. Which pIC50 did it give?
A: The pIC50 was 7.51.

Same assay, conditions: Method F: 384-well plate; IP = inflection point; read-out: MRC1 Binding IP

Q: How did the pIC50 turn out when `CC(=O)[C@H](CCCCN)NC(=O)CCCCC(=O)NCC(=O)N[C@@H](CCC(=O)N[C@@H](CCC(=O)NCCCCCC(=O)N(CCOC1O[C@H](CO)[C@@H](O)[C@H](O)[C@@H]1O)CCO[C@H]1O[C@H](CO)[C@@H](O)[C@H](O)[C@@H]1O)C(=O)NCCCCCC(=O)N(CCOC1O[C@H](CO)[C@@H](O)[C@H](O)[C@@H]1O)CCOC1O[C@H](CO)[C@@H](O)[C@H](O)[C@@H]1O)C(=O)NCCCCCC(=O)NCCO[C@H]1O[C@H](CO[C@H]2O[C@H](CO)[C@@H](O)[C@H](O)[C@@H]2O)[C@@H](O)[C@H](O[C@H]2O[C@H](CO)[C@@H](O)[C@H](O)[C@@H]2O)[C@@H]1O` (stereo partly shown) [IOC-35] was run?
A: The pIC50 was 7.78.

Q: How did the pIC50 turn out when `CC(=O)[C@H](CCCCN)NC(=O)CCCCC(=O)NCC(=O)N[C@@H](CCC(=O)N[C@@H](CCC(=O)NCCCCCC(=O)N(CCOC1O[C@H](CO)[C@@H](O)[C@H](O)[C@@H]1O)CCO[C@H]1O[C@H](CO)[C@@H](O)[C@H](O)[C@@H]1O)C(=O)NCCCCCC(=O)N(CCOC1O[C@H](CO)[C@@H](O)[C@H](O)[C@@H]1O)CCOC1O[C@H](CO)[C@@H](O)[C@H](O)[C@@H]1O)C(=O)NCCCCCC(=O)NCCO[C@H]1O[C@H](CO[C@H]2O[C@H](CO)[C@@H](O)[C@H](O)[C@@H]2O)[C@@H](O)[C@H](O[C@H]2O[C@H](CO)[C@@H](O)[C@H](O)[C@@H]2O)[C@@H]1O` (stereo partly shown) [IOC-30] was run?
A: Its pIC50 is 7.43.

Q: `CC(=O)[C@H](CCCCN)NC(=O)CCCCCNC(=O)[C@H](CCCCNC(=O)CN(CC(=O)NCCO[C@@H]1O[C@@H](C)[C@@H](O)[C@@H](O)[C@@H]1O)CC(=O)NCCO[C@@H]1O[C@@H](C)[C@@H](O)[C@@H](O)[C@@H]1O)NC(=O)[C@H](CCCCNC(=O)CN(CC(=O)NCCO[C@@H]1O[C@@H](C)[C@@H](O)[C@@H](O)[C@@H]1O)CC(=O)NCCO[C@@H]1O[C@@H](C)[C@@H](O)[C@@H](O)[C@@H]1O)NC(=O)CN(CC(=O)NCCO[C@@H]1O[C@@H](C)[C@@H](O)[C@@H](O)[C@@H]1O)CC(=O)NCCO[C@@H]1O[C@@H](C)[C@@H](O)[C@@H](O)[C@@H]1O` [IOC-47] was tested. Which pIC50 did it give?
A: Its pIC50 is 7.98.
